Assay results reported in PubChem BioAssay AID248 (DTP/NCI, 2004).
Where “and” joins values, the source holds several entries; their conditions need not be identical. Equal entries are not always repeated. Inconclusive results and toxic doses are left out. Rule as the data show it: active = T/C of 150% or more; inactive = T/C below 125%.

Test system: L1210 leukemia ip in BDF1 mice, survival T/C
Test: NCI In Vivo Anticancer Drug Screen. Data for tumor model L1210 Leukemia (intraperitoneal) in B6D2F1 (BDF1) mice
Conditions: endpoint: mean survival time, higher = longer survival
Summary of the method: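 Mice bearing the transplanted tumor received compound or vehicle. Survival of the treated group was divided by that of the vehicle-treated control group to give the ratio.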

[1] = dose: 50.0 mg/kg/injection, schedule: Q01DX001 (ip), vehicle: saline
[2] = dose: 100.0 mg/kg/injection, schedule: Q01DX001 (ip), vehicle: saline
[3] = dose: 200.0 mg/kg/injection, schedule: Q01DX001 (ip), vehicle: carboxymethylcellulose (CMC)
[4] = dose: 200.0 mg/kg/injection, schedule: Q01DX001 (ip), vehicle: saline
[5] = dose: 100.0 mg/kg/injection, schedule: Q01DX009 (ip), vehicle: Klucel (hydroxypropylcellulose) (HPC)
[6] = dose: 200.0 mg/kg/injection, schedule: Q01DX001 (ip), vehicle: Klucel (hydroxypropylcellulose) (HPC)
[7] = dose: 200.0 mg/kg/injection, schedule: Q01DX009 (ip), vehicle: Klucel (hydroxypropylcellulose) (HPC)
[8] = dose: 400.0 mg/kg/injection, schedule: Q01DX009 (ip), vehicle: Klucel (hydroxypropylcellulose) (HPC)
[9] = dose: 100.0 mg/kg/injection, schedule: Q04DX002 (ip), vehicle: Klucel (hydroxypropylcellulose) (HPC)
[10] = dose: 400.0 mg/kg/injection, schedule: Q04DX002 (ip), vehicle: Klucel (hydroxypropylcellulose) (HPC)

Measured: T/C

CS(=O)(=O)c1nc(N)nc2nc[nH]c12
inactive: dose: 7.5 mg/kg/injection, schedule: Q01DX Z (ip), vehicle: methylcellulose (MC) 95 % of control | dose: 10.0 mg/kg/injection, schedule: Q01DX001 (ip), vehicle: carboxymethylcellulose (CMC) 101 % of control | dose: 12.5 mg/kg/injection, schedule: Q01DX009 (ip), vehicle: saline 109 % of control | dose: 15.0 mg/kg/injection, schedule: Q01DX Z (ip), vehicle: methylcellulose (MC) 115 % of control | dose: 25.0 mg/kg/injection, schedule: Q01DX009 (ip), vehicle: saline 100 % of control | dose: 30.0 mg/kg/injection, schedule: Q01DX Z (ip), vehicle: methylcellulose (MC) 117 % of control | [1] 95 % of control | dose: 50.0 mg/kg/injection, schedule: Q01DX009 (ip), vehicle: saline 102 % of control | dose: 50.0 mg/kg/injection, schedule: Q04DX003 (ip), vehicle: saline 98 % of control | dose: 60.0 mg/kg/injection, schedule: Q01DX Z (ip), vehicle: carboxymethylcellulose (CMC) 119 % of control | dose: 60.0 mg/kg/injection, schedule: Q01DX Z (ip), vehicle: methylcellulose (MC) 123 % of control | dose: 75.0 mg/kg/injection, schedule: Q01DX Z (ip), vehicle: methylcellulose (MC) 120 % of control | [2] 101 % of control | dose: 100.0 mg/kg/injection, schedule: Q01DX009 (ip), vehicle: saline 97 % of control | dose: 100.0 mg/kg/injection, schedule: Q04DX003 (ip), vehicle: saline 93 % of control | [3] 100 % of control | [4] 117 % of control | dose: 200.0 mg/kg/injection, schedule: Q01DX009 (ip), vehicle: saline 103 % of control | dose: 200.0 mg/kg/injection, schedule: Q04DX003 (ip), vehicle: saline 98 % of control

O=C(Nc1cccc(C2=NCCN2)c1)c1cc(C(=O)Nc2cccc(C3=NCCN3)c2)cc(C(=O)Nc2cccc(C3=NCCN3)c2)c1
inactive: dose: 1.9 mg/kg/injection, schedule: Q01DX Z (ip), vehicle: carboxymethylcellulose (CMC) 97 % of control | dose: 2.8 mg/kg/injection, schedule: Q01DX Z (ip), vehicle: carboxymethylcellulose (CMC) 101 % of control | dose: 4.3 mg/kg/injection, schedule: Q01DX Z (ip), vehicle: carboxymethylcellulose (CMC) 97 % of control | dose: 6.5 mg/kg/injection, schedule: Q01DX Z (ip), vehicle: carboxymethylcellulose (CMC) 97 % of control and 103 % of control | dose: 9.7 mg/kg/injection, schedule: Q01DX Z (ip), vehicle: carboxymethylcellulose (CMC) 100 % of control | dose: 14.6 mg/kg/injection, schedule: Q01DX Z (ip), vehicle: carboxymethylcellulose (CMC) 96 % of control | dose: 22.0 mg/kg/injection, schedule: Q01DX Z (ip), vehicle: carboxymethylcellulose (CMC) 97 % of control | dose: 22.0 mg/kg/injection, schedule: Q01DX Z (ip), vehicle: saline 98 % of control | dose: 33.0 mg/kg/injection, schedule: Q01DX Z (ip), vehicle: saline 100 % of control

CCOC(=O)NN=C1CCCC1
inactive: dose: 50.0 mg/kg/injection, schedule: Q01DX009 (ip), vehicle: saline with Tween-80 94 % of control | dose: 100.0 mg/kg/injection, schedule: Q01DX009 (ip), vehicle: saline with Tween-80 97 % of control

Cc1ccc(S(=O)(=O)C(Cl)(Cl)Cl)cc1
inactive: dose: 100.0 mg/kg/injection, schedule: Q01DX001 (ip), vehicle: Klucel (hydroxypropylcellulose) (HPC) 96 % of control | [5] 97 % of control | [6] 96 % of control | [7] 104 % of control | dose: 400.0 mg/kg/injection, schedule: Q01DX001 (ip), vehicle: Klucel (hydroxypropylcellulose) (HPC) 102 % of control | [8] 104 % of control

O=C(O)C12CC=CCC1(C(=O)O)CC=CC2 (stereo not drawn)
inactive: dose: 50.0 mg/kg/injection, schedule: Q01DX001 (ip), vehicle: carboxymethylcellulose (CMC) 96 % of control | dose: 100.0 mg/kg/injection, schedule: Q01DX001 (ip), vehicle: carboxymethylcellulose (CMC) 98 % of control | [3] 102 % of control | dose: 400.0 mg/kg/injection, schedule: Q01DX001 (ip), vehicle: carboxymethylcellulose (CMC) 98 % of control

Cc1ccc2c(c1)[n+]([O-])c1nc(N)nc(N)c1[n+]2[O-]
inactive: dose: 50.0 mg/kg/injection, schedule: Q04DX002 (ip), vehicle: Klucel (hydroxypropylcellulose) (HPC) 93 % of control | dose: 53.0 mg/kg/injection, schedule: Q01DX001 (ip), vehicle: Klucel (hydroxypropylcellulose) (HPC) 97 % of control | dose: 88.0 mg/kg/injection, schedule: Q01DX001 (ip), vehicle: Klucel (hydroxypropylcellulose) (HPC) 96 % of control | [9] 102 % of control and 104 % of control | dose: 133.0 mg/kg/injection, schedule: Q01DX001 (ip), vehicle: Klucel (hydroxypropylcellulose) (HPC) 91 % of control | [6] 97 % of control | dose: 300.0 mg/kg/injection, schedule: Q01DX001 (ip), vehicle: Klucel (hydroxypropylcellulose) (HPC) 104 % of control | [10] 98 % of control and 119 % of control

CCN(CC)Cc1ncccc1O
inactive: dose: 50.0 mg/kg/injection, schedule: Q01DX009 (ip), vehicle: Klucel (hydroxypropylcellulose) (HPC) 106 % of control | [5] 106 % of control | dose: 100.0 mg/kg/injection, schedule: Q04DX003 (ip), vehicle: Klucel (hydroxypropylcellulose) (HPC) 105 % of control | [7] 93 % of control | dose: 200.0 mg/kg/injection, schedule: Q04DX003 (ip), vehicle: Klucel (hydroxypropylcellulose) (HPC) 104 % of control

C/C(=C\Cl)CO
inactive: dose: 100.0 mg/kg/injection, schedule: Q04DX003 (ip), vehicle: saline with Tween-80 97 % of control | dose: 200.0 mg/kg/injection, schedule: Q04DX003 (ip), vehicle: saline with Tween-80 95 % of control

[O-][P+](=NC12CC3CC(CC(C3)C1)C2)c1ccccc1 (stereo not drawn)
inactive: dose: 75.0 mg/kg/injection, schedule: Q04DX003 (ip), vehicle: Klucel (hydroxypropylcellulose) (HPC) 99 % of control | dose: 150.0 mg/kg/injection, schedule: Q04DX003 (ip), vehicle: Klucel (hydroxypropylcellulose) (HPC) 101 % of control | dose: 300.0 mg/kg/injection, schedule: Q04DX003 (ip), vehicle: Klucel (hydroxypropylcellulose) (HPC) 100 % of control

O=C(NCc1ccc(Cl)c(Cl)c1)Nc1ccccc1F
inactive: [5] 101 % of control | [9] 102 % of control | [7] 104 % of control | dose: 200.0 mg/kg/injection, schedule: Q04DX002 (ip), vehicle: Klucel (hydroxypropylcellulose) (HPC) 105 % of control | [8] 101 % of control | [10] 97 % of control

NC(C(=O)O)c1cccc(F)c1 (stereo not drawn)
inactive: [1] 98 % of control | [2] 101 % of control | [4] 101 % of control | dose: 400.0 mg/kg/injection, schedule: Q01DX001 (ip), vehicle: saline 95 % of control
